Measurements reported in US20050148631A1, “Amino heterocyclyl inhibitors of 11-beta-hydroxy steroid dehydrogenase type 1” (AGOURON PHARMACEUTICALS, INC., priority 2003, published 2005).
Read-outs that look alike come from different tables or passages of the source.

Columns and labels:
[1] = molecular target: T1, 11β-hsd-1 enzyme (Homo sapiens, UniProt P28845); assay: 11β-hsd-1 enzyme assay, Kiapp determination (3H-cortisone to cortisol, radio-HPLC); format: biochemical; details: read-out: Ki app
T1 sequence (P28845 whole entry, species assumed): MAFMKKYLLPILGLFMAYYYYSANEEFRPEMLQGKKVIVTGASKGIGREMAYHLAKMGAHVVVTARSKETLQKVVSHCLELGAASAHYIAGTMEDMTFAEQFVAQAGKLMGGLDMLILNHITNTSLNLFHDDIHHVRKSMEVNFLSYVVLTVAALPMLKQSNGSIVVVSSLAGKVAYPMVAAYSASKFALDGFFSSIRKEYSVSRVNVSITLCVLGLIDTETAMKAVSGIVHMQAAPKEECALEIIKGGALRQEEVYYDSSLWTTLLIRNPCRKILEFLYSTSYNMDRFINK

[2] = molecular target: T1, 11β-hsd-1 enzyme; assay: 11β-hsd-1 enzyme assay, percentage of inhibition (3H-cortisone to cortisol, radio-HPLC); format: biochemical
[3] = 0.1 uM, read-out: % inh @ 0.1 uM
[4] = compound at 0.1 uM, read-out: % inh @ 0.1 uM

| Compound | Ki [1] [µM] | inhibition at 0.1 µM [2, 3] [%] | Ki ([1]; apparent Ki, 11β-hsd-1 enzyme) [µM] | inhibition at 0.1 µM [2, 4] [%] | inhibition at 0.1 µM ([2]; read-out: % inh @ 0.1 uM, compound at 0.1 uM) [%] |
| --- | --- | --- | --- | --- | --- |
| Cc1cccc(NS(=O)(=O)c2ccc(-c3ccccc3C)cc2C)n1 [Example 172] | 0.048 | 82 | – | – | – |
| N#Cc1ccc(C2CCN(S(=O)(=O)Nc3cccc(N)n3)CC2)cc1 [Example 317, 4-(4-Cyano-phenyl)-piperidine-1-sulfonic acid (6-amino-pyridin-2-yl)-amide] | – | – | < 0.001 | 100 | – |
| Cc1cccc(NS(=O)(=O)c2ccc(-c3ccc(C#N)cc3)cc2O)n1 [Example 286, 4′-Cyano-3-hydroxy-biphenyl-4-sulfonic acid (6-methyl-pyridin-2-yl)-amide] | – | – | 0.0062 | 100 | – |
| N#Cc1ccc(-c2ccc(S(=O)(=O)Nc3ccc4ccccc4n3)cc2)nc1 [Example 288] | – | – | 0.011 | 91 | – |
| CCN(CC)C(=O)Cc1cccc(NS(=O)(=O)c2ccc(C(F)(F)F)cc2)n1 [Example 21] | 0.48 | – | – | – | – |
| Cc1cccc(NS(=O)(=O)c2ccc(-c3ccc(C#N)cc3)cc2F)n1 [Example 283, 4′-Cyano-3-fluoro-biphenyl-4-sulfonic acid (6-methyl-pyridin-2-yl)-amide] | – | – | 0.0057 | 100 | – |
| CCS(=O)(=O)c1ccc(-c2ccc(S(=O)(=O)Nc3cccc(C)n3)c(C)c2)cc1 [Example 203] | – | – | 0.019 | 86 | – |
| CCc1cccc(NS(=O)(=O)c2sc(-c3ccccc3)nc2C)n1 [Example 104] | 0.023 | 89.6 | – | – | – |
| Cc1cccc(NS(=O)(=O)c2ccc(-c3ccc(F)cc3)cc2C)n1 [Example 279] | – | – | 0.0045 | 100 | – |
| Nc1cccc(NS(=O)(=O)c2ccc(C(F)(F)F)cc2)n1 [Example 39] | 0.009 | 96 | – | – | – |
| Cc1cc(-c2ccc(S(=O)(=O)Nc3ccc4ccccc4n3)cn2)ccc1F [Example 292] | – | – | 0.049 | 72.4 | – |
| Cc1cccc(NS(=O)(=O)c2ccc(-c3ccc(C(C)C)cc3)c(C)c2)n1 [Example 233] | – | – | 0.11 | 78 | – |
| CCN(CC)C(=O)Cc1cccc(NS(=O)(=O)c2cccc(Cl)c2C)n1 [Example 20] | 0.22 | – | – | – | – |
| Cc1cccc(NS(=O)(=O)c2ccc(-c3ccc(C#N)cc3)c(C)c2)n1 [Example 281] | – | – | 0.01 | 92.9 | – |
| Cc1cccc(NS(=O)(=O)c2ccc(-c3ccc(C(C)C)cc3)cc2C)n1 [Example 190] | 0.035 | 78 | – | – | – |
| Cc1cccc(NS(=O)(=O)c2ccc(-c3ccc(F)cc3C)cc2C)n1 [Example 204] | – | – | 0.01 | 85 | – |
| O=S(=O)(Nc1cccc(C2CC2)n1)c1ccc(-c2ccc(C(F)(F)F)cc2)nc1 [Example 294] | – | – | 0.0073 | 94.6 | – |
| CCc1ccccc1-c1ccc(S(=O)(=O)Nc2cccc(C)n2)c(C)c1 [Example 201] | – | – | 0.043 | 75 | – |
| Cc1cccc(NS(=O)(=O)c2ccc(-c3cccc(C#N)c3)cc2C)n1 [Example 177] | 0.02 | 85 | – | – | – |
| Cc1cccc(NS(=O)(=O)c2ccc3c(Cl)cccc3c2)n1 [Example 102] | < 0.001 | 100 | – | – | – |
| Cc1cccc(NS(=O)(=O)c2ccc(-c3ccc(F)c(Cl)c3)c(C)c2)n1 [Example 219] | – | – | 0.017 | 68 | – |
| Cc1cccc(NS(=O)(=O)c2ccc(-c3cc(Cl)cc(Cl)c3)cc2C)n1 [Example 174] | 0.0032 | 98 | – | – | – |
| Cc1cccc(NS(=O)(=O)c2ccc(-c3ccncc3)cc2)n1 [Example 257] | – | – | 0.12 | 74.7 | – |
| Cc1cccc(NS(=O)(=O)c2sc3ccc(Cl)cc3c2C)n1 [Example 46] | 0.0032 | 98 | – | – | – |
| Cc1cccc(NS(=O)(=O)c2ccc(-c3cc(F)c(F)c(F)c3)cc2C)n1 [Example 184] | 0.012 | 97 | – | – | – |
| Cc1cccc(NS(=O)(=O)N2CCC(c3ccc(F)cc3)CC2)n1 [Example 301] | – | – | 0.0049 | 100 | – |
| Cc1cccc(NS(=O)(=O)c2ccc(-c3ccc4c(c3)CCO4)cc2C)n1 [Example 211] | – | – | 0.023 | 81 | – |
| Cc1cccc(NS(=O)(=O)c2ccc(-c3ccccc3C#N)cc2C)n1 [Example 195] | 0.017 | 82 | – | – | – |

| Compound | Ki [1] [µM] | inhibition at 0.1 µM [2, 3] [%] | Ki ([1]; apparent Ki, 11β-hsd-1 enzyme) [µM] | inhibition at 0.1 µM [2, 4] [%] | inhibition at 0.1 µM ([2]; read-out: % inh @ 0.1 uM, compound at 0.1 uM) [%] |
| --- | --- | --- | --- | --- | --- |
| Cc1cccc(NS(=O)(=O)c2ccc(-c3ccc(C#N)cc3)nc2)n1 [Example 267, 6-(4-Cyano-phenyl)-pyridine-3-sulfonic acid (6-methyl-pyridin-2-yl)-amide] | – | – | 0.0226 | 81.8 | – |
| CCOc1cccc(-c2ccc(S(=O)(=O)Nc3cccc(C)n3)c(C)c2)c1 [Example 165] | 0.043 | 71 | – | – | – |
| Cc1cccc(NS(=O)(=O)N2CCC(Oc3ccccc3)CC2)n1 [Example 314] | – | – | 0.052 | 71.8 | – |
| Cc1cccc(NS(=O)(=O)c2ccc(-c3ccc(Cl)cc3)cc2C)n1 [Example 168] | 0.0028 | 96 | – | – | – |
| COc1cc(S(=O)(=O)Nc2cccc(C)n2)ccc1-c1ccc(C#N)cc1 [Example 258] | – | – | 0.0059 | 100 | – |
| Cc1cccc(NS(=O)(=O)N2CCC(c3ccc(C#N)cc3)CC2)n1 [Example 310] | – | – | 0.018 | – | 100 |
| O=S(=O)(Nc1ccc2ccccc2n1)N1CCc2conc2CC1 [Example 315] | – | – | 0.025 | 86.1 | – |
| CCc1cccc(NS(=O)(=O)c2ccc(C(F)(F)F)cc2)n1 [Example 71] | 0.0346 | 66 | – | – | – |
| O=S(=O)(Nc1ccc2ccccc2n1)c1ccc(-c2ccc(F)cc2)cc1 [Example 48] | 0.0145 | 90 | – | – | – |
| Cc1cccc(NS(=O)(=O)c2ccc(-c3cccc(CO)c3)c(C)c2)n1 [Example 226] | – | – | 0.46 | 94 | – |
| Cc1cccc(NS(=O)(=O)c2ccc(-c3ccc(F)cc3)nc2)n1 [Example 268] | – | – | 0.04 | 70 | – |
| Nc1cccc(NS(=O)(=O)c2ccc(-c3ccc(C(F)(F)F)cc3)cc2)n1 [Example 95] | 0.0044 | 100 | – | – | – |
| Cc1cccc(NS(=O)(=O)c2ccc(-c3ccc(Cl)c(Cl)c3)cc2C)n1 [Example 176] | 0.0052 | 100 | – | – | – |
| Cc1c(S(=O)(=O)Nc2cccc(N)n2)sc2ccc(Cl)cc12 [Example 107] | < 0.001 | 100 | – | – | – |
| Cc1cccc(NS(=O)(=O)c2ccc(-c3ccc(C#N)c(Cl)c3)cc2)n1 [Example 274] | – | – | 0.0035 | 94.4 | – |
| Cc1cccc(NS(=O)(=O)c2ccc(-c3ccc(C#N)cc3C(F)(F)F)cc2)n1 [Example 272] | – | – | 0.012 | 100 | – |
| Cc1cc(C)nc(NS(=O)(=O)c2ccc(-c3ccc(C#N)cc3)cc2)c1 [Example 96] | 0.007 | 100 | – | – | – |
| Cc1ccc(-c2ccc(S(=O)(=O)Nc3cccc(C)n3)c(C)c2)cc1 [Example 171] | 0.0069 | 93 | – | – | – |
| Cc1cccc(NS(=O)(=O)c2ccc(-c3cc(F)ccc3F)cc2C)n1 [Example 202] | – | – | 0.014 | 88 | – |
| Cc1cccc(NS(=O)(=O)c2ccc(-c3cc(F)c(F)c(F)c3)c(C)c2)n1 [Example 228] | – | – | 0.029 | 74 | – |
| Cc1cccc(NS(=O)(=O)c2cc3ccccc3s2)n1 [Example 72] | 0.0309 | 74.6 | – | – | – |
| Cc1cccc(NS(=O)(=O)c2ccc(-c3cc(F)cc(F)c3)cc2C)n1 [Example 178] | 0.0082 | 95 | – | – | – |
| Cc1cccc(NS(=O)(=O)N2CCc3ccccc3C2)n1 [Example 300] | – | – | 0.011 | 88.3 | – |
| Cc1c(S(=O)(=O)Nc2cccc(CCO)n2)sc2ccc(Cl)cc12 [Example 115, 5-Chloro-3-methyl-benzo[b]thiophene-2-sulfonic acid [6-(2-hydroxy-ethyl)-pyridin-2-yl]-amide] | 0.0048 | 93.6 | – | – | – |
| Cc1cccc(NS(=O)(=O)c2ccc(-c3ccc(C#N)cc3)c(F)c2)n1 [Example 284, 4′-Cyano-2-fluoro-biphenyl-4-sulfonic acid (6-methyl-pyridin-2-yl)-amide] | – | – | 0.0034 | 100 | – |
| Cc1cccc(NS(=O)(=O)c2ccc(-c3ccc(C(F)(F)F)cc3)cc2)n1 [Example 157] | – | 100 | – | – | – |
| COc1cccc(NS(=O)(=O)c2ccc(-c3ccc(C#N)cc3)cc2)n1 [Example 78] | – | 8.2 | – | – | – |
